The results in this text go back to patent US20240209028A1, “CNP COMPOUNDS” (priority 2022, published 2024).

Starred links: 1 amine or outer side, 2 acyl side, 3 side chain; linkers in the order of their positions; H or OH if unused. Positions of bridges follow the written chain, without caps; N, C: chain ends. Residues, ends and D or L forms follow the SMILES beside them. *: point of attachment. C18 diacid = O=C(O)CCCCCCCCCCCCCCCCC(=O)*; γGlu = O=C(O)[C@H](CCC(=O)[*:2])N[*:1]; AEEA = NCCOCCOCC(=O)O

Data set [1] can be described thus: PK after i.v. and s.c. administration to Göttingen minipig. To be noted: female, Göttingen, minipig, in vivo. The method, then: (§1) The purpose of this study was to investigate pharmacokinetic and pharmacodynamic properties after intravenous (i.v.) and subcutaneous (s.c.) administration to Gottingen Minipig and domestic LYD pig, and to estimate bioavailability after s.c. dosing. Quantitative plasma analysis of CNP and cGMP levels were performed as described in
(§2) Animals and dosing: The pharmacokinetic and pharmacodynamic studies in Gottingen Minipig or domestic LYD pig were conducted at CRO Minerva Imaging or Novo Nordisk A/S, respectively. CNP compounds were dosed to normal female 1) Gottingen minipigs 6-12 months of age with an average weight of 22 kg or 2) domestic LYD pigs 4-5 months of age with and average weight of 80 kg. At least one week prior to dosing, permanent central venous catheters were implanted for blood sampling and intravenous (i.v.) dosing. For subcutaneous (s.c.) dosing, the pigs were ultrasound scanned and the optimal injection area laterally on the neck marked by a permanent tattoo. An insulin pen (NovoPen Echo or NovoPen 4) and insulin needle (NovoFine 32G/4 mm or NovoTwist 32G/5 mm) were used for accurate deposition of the CNP formulations in the subcutaneous fat tissue with the needle perpendicular to the skin.
(§3) CNP compounds were formulated according to the principles in General Methods of Preparation—Method G and were either A) 8 mM sodium phosphate, 250 mM glycerol, pH 6.5, B) 5 mM sodium acetate, 250 mM glycerol, pH 4.0, C) 5 mM sodium acetate, 240 mM propylene glycol, pH=4.0, D) 8 mM sodium phosphate, 250 mM glycerol, pH 7.5 or E) 20 mM sodium phosphate, 223 mM propylene glycol, pH 6.0.
(§4) Intravenously, the CNP compounds were dosed at 30-60 nmol/kg to Minipig and 15-43 nmol/kg to domestic pig using formulations A-E. Subcutaneously, the CNP compounds were dosed at 55-62 nmol/kg to Minipig and 20-30 nmol/kg to domestic pig using formulations A-D.
(§5) Sampling: Blood samples of approximately 1 mL were collected pre dose and up to 14 days post dose into EDTA-coated tubes (8 mM) for cGMP and CNP compound analysis by LC-MS. In few instances, cGMP was only analysed up to 48 hours post dose after intravenous dosing in domestic LYD pig. The blood samples were kept on wet ice for maximum 30 minutes until centrifugation for 10 minutes at 4° C. and minimum 1500G, and the plasma samples were stored at −20° C. until analysis.
(§6) Plasma concentration-time profiles were analyzed by non-compartmental PK analysis using Phoenix WinNonlin 8.1, Pharsight Inc., Mountain View, CA, USA. Calculation of the area under the plasma concentration-time curve (AUC) was based on the “linear up log down” method, and uniform weighting was used for estimation of the terminal rate constant (λz). S.c. bioavailability (F) was calculated as the dose-normalized AUC (AUC/dose) after s.c. administration divided by the AUC/dose after i.v. administration. […]

Data set [2] in a line: PK after i.v. and s.c. administration to domestic LYD pig. To be noted: female, pig, in vivo; for bioavailability: LYD (domestic); for clearance / half-life: LYD. The method, then:
as §1, §2, §3, §4, §5, §6

Data set [3] in a line: Local tolerance of CNP compounds in rats (s.c. injection, histopathology). Conditions: rat, s.c. 350 μl, about 1000 nmol/ml, 5 days post injection. It is filed as in vivo, Sprague Dawley rat. The method, then: The purpose of this study was to evaluate the local tissue reaction to subcutaneous injection of CNP compounds in rats.
Procedure: The CNP compounds were formulated according to the principles described in General Methods of Preparation-Method G. Each Sprague Dawley rat (male, 10-11 weeks of age at arrival, Janvier, France) was dosed s.c. with 250 or 350 uL of the same compound (formulation concentration of 1000 nmol/mL) 120 h prior to tissue collection resulting in a total of two injections for each animal (Table 15). Injection site (flank or neck) was alternated across animals within each group and time point.
Animals had access to tap water and food (Altromin 1324) ad libitum. Group size was n=3 for vehicles and positive control, and n=4 for test compounds. Vehicles and compounds were formulated in either 5 mM sodium acetate, 250 mM glycerol, pH 4.0 or 8 mM sodium phosphate, 250 mM glycerol, pH 7.4 as shown in Table 16.
The animals were anesthetized with isoflurane. Via an electric shaving machine, a squared area of fur (2 cm×2 cm) was removed either from the rats' neck or flank area). For dosing, a new injection needle (25G canula, 1 ml syringe) was placed in the middle of the square border closest to the animal's head and the needle was inserted into the skin from the border towards the center of the square. […] On the day of tissue collection, the rats were deeply anaesthetized with isoflurane and euthanized by exsanguination. The injection sites were inspected and scored with regards to pathological lesions. The injection sites were evaluated, and any changes were noted (location, colour, shape and size), and sampled for histology preparation.
The injection sites were removed and fixed in 4% phosphate buffered neutral formaldehyde in sealed plastic containers.
Each injection site was subsequently cut into three sections 0.8 cm, 1.0 cm and 1.2 cm from the square border where the injection needle was placed, and, respectively, these sections represented the injection sites and the adjacent tissue. The tissue was processed, embedded in paraffin and cut in 2-4 μm thin sections, stained with the haematoxylin and eosin (H&E), and evaluated microscopically with a light microscope. Histopathological changes were graded on a 5-level scale (Minimal (Min), Mild (Mil), Moderate (Mod), Marked (Mar) and Severe (Sev)).

For the compound `CC[C@H](C)[C@@H]1NC(=O)[C@H](CCCNC(=N)N)NC(=O)[C@H](CCC(=O)O)NC(=O)[C@H](CC(C)C)NC(=O)[C@H](CCCCN)NC(=O)[C@H](CC(C)C)NC(=O)CNC(=O)[C@H](Cc2ccccc2)NC(=O)[C@@H](NC(=O)CNC(=O)[C@H](CCCCN)NC(=O)[C@H](CO)NC(=O)[C@H](CC(C)C)NC(=O)CNC(=O)[C@H](CCCCN)NC(=O)[C@H](CCCCN)NC(=O)[C@H](CCC(N)=O)NC(=O)[C@H](C)NC(=O)CNC(=O)[C@H](CCCCN)NC(=O)[C@H](Cc2ccc(O)cc2)NC(=O)[C@H](CCCCN)NC(=O)[C@H](CCCNC(=N)N)NC(=O)[C@H](C)NC(=O)COCCOCCNC(=O)COCCOCCNC(=O)CC[C@H](NC(=O)CCCCCCCCCCCCCCCCC(=O)O)C(=O)O)CSSC[C@@H](C(=O)O)NC(=O)CNC(=O)[C@H](CC(C)C)NC(=O)CNC(=O)[C@H](CO)NC(=O)[C@H](CC(C)C)NC(=O)[C@H](CO)NC(=O)CNC1=O` [Compound 0776] ({C18 diacid-γGlu-AEEA-AEEA}-ARKYKGAQKKGLSKGCFGLKLERIGSLSGLGC-OH; disulfide 16-32), the clearance in data set [1] (iv) is 0.841 mL/h/kg; in data set [2] (iv), 1.34 mL/h/kg. For the same compound, the half-life in data set [1] (iv) is 60 h; in data set [1] (sc) it was 56 h; in data set [2] (iv), 29 h; in data set [2] (sc) it was 41 h. Further, the values for the bioavailability in data set [1] (sc) and in data set [2] (sc) were 13% and 7%, respectively.

`CC[C@H](C)[C@@H]1NC(=O)[C@H](CCCNC(=N)N)NC(=O)[C@H](CC(=O)O)NC(=O)[C@H](CC(C)C)NC(=O)[C@H](CCCCN)NC(=O)[C@H](CC(C)C)NC(=O)CNC(=O)[C@H](Cc2ccccc2)NC(=O)[C@@H](NC(=O)CNC(=O)[C@H](CCCCN)NC(=O)[C@H](CO)NC(=O)[C@H](CC(C)C)NC(=O)CNC(=O)[C@H](CCCCN)NC(=O)[C@H](CCCCN)NC(=O)[C@H](CCC(N)=O)NC(=O)[C@H](C)NC(=O)CNC(=O)[C@H](Cc2c[nH]cn2)NC(=O)[C@H](CCC(=O)O)NC(=O)COCCOCCNC(=O)COCCOCCNC(=O)CC[C@H](NC(=O)CCCCCCCCCCCCCCCCC(=O)O)C(=O)O)CSSC[C@@H](C(=O)O)NC(=O)CNC(=O)[C@H](CC(C)C)NC(=O)CNC(=O)[C@H](CO)NC(=O)[C@H](CC(C)C)NC(=O)[C@H](CO)NC(=O)CNC1=O` [Compound 1235]: in data set [2] (sc), the bioavailability stood at 25% and the half-life is 29 h. In data set [2] (iv), the clearance is 3.28 mL/h/kg and the half-life is 20 h.

Take `CC[C@H](C)[C@@H]1NC(=O)[C@H](CCCNC(=N)N)NC(=O)[C@H](CC(=O)O)NC(=O)[C@H](CC(C)C)NC(=O)[C@@H]2CCCN2C(=O)[C@H](CC(C)C)NC(=O)CNC(=O)[C@H](Cc2ccccc2)NC(=O)[C@@H](NC(=O)CNC(=O)[C@H](CCCCN)NC(=O)[C@H](CO)NC(=O)[C@@H](NC(=O)CNC(=O)[C@@H](NC(=O)[C@H](Cc2c[nH]cn2)NC(=O)[C@H](CCC(N)=O)NC(=O)[C@H](C)NC(=O)CNC(=O)[C@H](Cc2c[nH]cn2)NC(=O)[C@H](Cc2ccc(O)cc2)NC(=O)[C@H](CCCCN)NC(=O)[C@H](CCCNC(=N)N)NC(=O)[C@H](C)NC(=O)COCCOCCNC(=O)COCCOCCNC(=O)CC[C@H](NC(=O)CC[C@H](NC(=O)CC[C@H](NC(=O)CCCCCCCCCCCCCCCCC(=O)O)C(=O)O)C(=O)O)C(=O)O)[C@@H](C)O)C(C)C)CSSC[C@@H](C(=O)O)NC(=O)CNC(=O)[C@H](CC(C)C)NC(=O)CNC(=O)[C@H](CO)NC(=O)[C@H](CC(C)C)NC(=O)[C@H](CO)NC(=O)CNC1=O` [Compound 1420] ({C18 diacid-γGlu-γGlu-γGlu-AEEA-AEEA}-ARKYHGAQHTGVSKGCFGLPLDRIGSLSGLGC-OH; disulfide 16-32): in data set [3], the “Number of injections by severity of necrosis: Mil.” value was 1 and the “Number of injections by severity of necrosis: NAD (No Abnormalities Detected)” value is reported as 3.
